Here are results for 14 compounds from patent publication US5714142A, “Method and compositions for increasing the serum half-life of pharmacologically active agents by binding to transthyretin-selective ligands” (priority 1996, dated 1998).

Like-named read-outs stand apart in the source and are kept apart here.

One data set has as its target TTR (transthyretin) (Homo sapiens, UniProt P02766). Put plainly: percent inhibition of radiolabelled T4 binding to TTR (procedure of R. Somack et al.). The note with it: for inhibition at 10 µM: read-out: ~% T4 (percent inhibition of radiolabelled T4 binding to TTR); for inhibition at 1 µM: [I] 1 uM. From the text: Results are set forth in the following table, wherein "%T4 " represents the percent inhibition of radiolabelled T4 binding to TTR".

For data set [1] the following is noted: cited from earlier work.
The next data set relates to human astrocytoma cells. The note with it: C. M. Divino et al. 1990; cited from earlier work.

`NCCOCCOCCNC(=O)Cc1cc(I)c(O)c(I)c1`: the inhibition – broadly, how much of the control response was suppressed – at 10 µM on TTR (transthyretin) ([I] 10 uM) was approximately 25%.

As to superoxide dismutase, the half-life result in data set [1] (unconjugated, G. D. Mao et al. 1989) is reported as “five”.

For `NCCCCCCNC(=O)Cc1cc(I)c(O)c(I)c1`, the inhibition at 10 µM at TTR (transthyretin) ([I] 10 uM) was approximately 15%.

In the case of `Oc1c(I)cc(I)cc1I`, the inhibition at 10 µM at TTR (transthyretin) was approximately 90%.

On TTR (transthyretin), `O=C(O)c1ccc(-c2cc(I)c(O)c(I)c2)cc1` showed an inhibition at 1 µM of approximately 80%.

In the case of `O=C(Cc1cc(I)c(O)c(I)c1)OCC#CCO`, the inhibition at 10 µM at TTR (transthyretin) ([I] 10 uM) was approximately 90%.

As for `OCc1cc(I)c(O)c(I)c1`, the inhibition at 1 µM on TTR (transthyretin) was approximately 70%.

As for `O=C(O)Cc1cc(I)c(O)c(I)c1`, the inhibition at 10 µM on TTR (transthyretin) ([I] 10 uM) was approximately 70%.

transthyretin: the t1/2 result in data set [1] (up to about) was “up to two”. Moreover, in the data set on human astrocytoma cells, the “binding to cell sites” value was “binds to specific high affinity sites on human astrocytoma cells”.

As for `O=C(O)Cc1cc(I)c(Oc2cc(I)c(O)c(I)c2)c(I)c1`, the inhibition at 10 µM at TTR (transthyretin) ([I] 10 uM) was approximately 90%.

As for `CC(C)(C)OC(=O)NCCCCCCNC(=O)Cc1cc(I)c(O)c(I)c1`, on TTR (transthyretin) ([I] 10 uM), the inhibition at 10 µM was approximately 40%.

Consider `O=C(O)CCc1cc(I)c(O)c(I)c1`, for which, at TTR (transthyretin) ([I] 10 uM), the inhibition at 10 µM was approximately 80%.

For `OCCc1cc(I)c(O)c(I)c1`, the inhibition at 10 µM on TTR (transthyretin) ([I] 10 uM) is approximately 85%.

Regarding `CC(C)(C)OC(=O)NCCOCCOCCNC(=O)Cc1cc(I)c(O)c(I)c1`, on TTR (transthyretin) ([I] 10 uM), the inhibition at 10 µM is approximately 45%.
